Assay results published in patent US12643858B2 (Inipharm, Inc., priority 2020, dated 2026).

molecular target: T1, HSD17B13 enzyme (Homo sapiens, UniProt Q7Z5P4); test: NADH detection assay (fluorescence based LTB3 assay) for HSD17B13 activity; type: biochemical; details: substrate 25 μM LTB3, 3 mM NAD+, 125 nM HSD17B13 enzyme, 1 hour at 26.5° C.
T1 construct: His; made in house; host or cells: E. coli
T1 sequence (Q7Z5P4 20-300): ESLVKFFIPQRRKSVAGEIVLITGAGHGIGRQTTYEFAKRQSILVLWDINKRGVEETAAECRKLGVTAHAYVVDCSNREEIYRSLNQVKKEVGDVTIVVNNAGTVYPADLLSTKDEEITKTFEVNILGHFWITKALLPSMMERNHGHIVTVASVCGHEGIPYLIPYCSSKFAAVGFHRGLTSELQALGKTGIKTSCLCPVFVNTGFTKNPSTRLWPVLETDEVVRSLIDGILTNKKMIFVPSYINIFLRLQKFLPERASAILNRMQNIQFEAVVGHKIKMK
Method: Example A: NADH Detection Assay for Evaluation of HSD17ß13 Activity and Identification of Inhibitors
The fluorescence based Leukotriene B3 (LTB3) assay monitors the fluorescence of NADH, which is generated from NAD+ during the dehydrogenation of the substrate LTB3. The reactions were performed in a 384-well plates (Greiner; #655076) in a 20 μl reaction volume containing the following reagents (final concentrations): 25 μM LTB3 (Cayman; #20109); 3 mM NAD+ (Sigma; #N0623); 125 nM HSD17B13 enzyme (in-house; E. coli expressed His-tagged, purified, soluble protein); […] potassium phosphate buffer, pH 7.4; and 1% DMSO. Reactions were initiated by co-addition of NAD+ and enzyme, and monitored for 1 hour at 26.5° C. Generation of NADH was measured as the fluorescence signal (Excitation at 340 nm and Emission at 445 nm) at 1 hour minus the baseline fluorescence at t=0. Fluorescence signals in the absence of LTB3 (negative control values), were subtracted from all values so that the results reflected substrate-dependent production of NADH. NADH standards were included to allow the conversion of relative fluorescence units into rates of enzyme activity. Enzyme activity in the presence of test compounds was expressed as a percentage of the uninhibited enzyme activity, and plotted versus inhibitor concentration. Non-linear regression was performed using a four-parameter logistic model and GraphPad Prism software (GraphPad Software, La Jolla, CA). Ten concentrations of inhibitor were tested (in the range of 30 μM-2.5 nM), and two independent assessments were performed at each concentration.

`CS(=O)(=O)Nc1cc(Oc2cccc(-c3cccc(O)c3F)n2)ccc1F` [Example 57, N-(2-fluoro-5-{[6-(2-fluoro-3-hydroxyphenyl)pyridin-2-yl]oxy}phenyl)methane-sulfonamide] and `CC(=O)Nc1cc(Oc2cccc(-c3cccc(O)c3F)n2)ccc1F` [Example 106, N-(2-fluoro-5-{[6-(2-fluoro-3-hydroxyphenyl)pyridin-2-yl]oxy}phenyl)acetamide] cannot be ordered by IC50: greater than 30 µM for the first, greater than 30 µM for the second.

`Oc1cc(Oc2cccc(-c3ccc(Cl)cc3)n2)ccc1F` [Example 82, 5-{[6-(4-chlorophenyl)pyridin-2-yl]oxy}-2-fluorophenol] and `Oc1cc(Oc2cccc(-c3ccc(F)c(Cl)c3)n2)ccc1F` [Example 85, 5-{[6-(3-chloro-4-fluorophenyl)pyridin-2-yl]oxy}-2-fluorophenol] cannot be ordered by IC50: no more than 5 µM for the first, 5 to 10 µM for the second.

`COc1cccc(-c2cccc(Oc3ccc(=O)n(C(F)F)c3)n2)c1F` [Example 112, 1-(difluoromethyl)-5-((6-(2-fluoro-3-methoxyphenyl)pyridin-2-yl)oxy)pyridin-2(1H)-one] and `Oc1cccc(-c2cccc(Oc3ccc(F)c(OC(F)F)c3)n2)c1F` [Example 14, 3-{6-[3-(difluoromethoxy)-4-fluorophenoxy]pyridin-2-yl}-2-fluorophenol] cannot be ordered by IC50: greater than 30 µM for the first, greater than 30 µM for the second.

Compared with `COc1ccc(Oc2cccc(-c3cccc(O)c3F)n2)cc1C(=O)O` [Example 35, 5-((6-(2-fluoro-3-hydroxyphenyl)pyridin-2-yl)oxy)-2-methoxybenzoic acid], `COc1ccccc1-c1cccc(Oc2ccc(F)c(O)c2)n1` [Example 99, 2-fluoro-5-((6-(2-methoxyphenyl)pyridin-2-yl)oxy)phenol] is lower in IC50: greater than 30 µM for the first, 10 to 30 µM for the second.

First: Oc1cc(Oc2cccc(-c3ccc4cn[nH]c4c3)n2)ccc1F [Example 3, 5-((6-(1H-indazol-6-yl)pyridin-2-yl)oxy)-2-fluorophenol]
Second: COc1cc(Oc2cccc(-c3ccc4cn[nH]c4c3)n2)ccc1F [Example 110, 6-[6-(4-fluoro-3-methoxyphenoxy)pyridin-2-yl]-2H-indazole]
The IC50 of the first is lower: 5 to 10 µM for the first, greater than 30 µM for the second. The first is the more potent here.

`O=S(=O)(c1cccc(-c2cccc(Oc3ccc(F)c(O)c3)n2)c1)N1CCNCC1` [Example 48, 2-fluoro-5-((6-(3-(piperazin-1-ylsulfonyl)phenyl)pyridin-2-yl)oxy) phenol] and `CC(=O)N1CCN(S(=O)(=O)c2cccc(-c3cccc(Oc4ccc(F)c(O)c4)n3)c2)CC1` [Example 42, 1-(4-{3-[6-(4-fluoro-3-hydroxyphenoxy)pyridin-2-yl]benzenesulfonyl}piperazin-1-yl)ethan-1-one] cannot be ordered by IC50: greater than 30 µM for the first, greater than 30 µM for the second.

`Nc1nc2cc(-c3cccc(Oc4ccc(F)c(O)c4)n3)ccc2o1` [Example 32, 5-{[6-(2-amino-1,3-benzoxazol-5-yl)pyridin-2-yl]oxy}-2-fluorophenol] and `Oc1cc(Oc2cccc(-c3ccc(F)c(O)c3)n2)ccc1F` [Example 40, 2-fluoro-5-(6-(4-fluoro-3-hydroxyphenoxy)pyridin-2-yl)phenol] cannot be ordered by IC50: 5 to 10 µM for the first, no more than 5 µM for the second.

`Oc1cccc(-c2cccc(Oc3cccnc3)n2)c1F` [Example 2, 2-fluoro-3-(6-(pyridin-3-yloxy)pyridin-2-yl) phenol] and `Oc1cc(Oc2cccc(-c3cccnc3)n2)ccc1F` [Example 1, 5-([2,3′-bipyridin]-6-yloxy)-2-fluorophenol] cannot be ordered by IC50: 5 to 10 µM for the first, no more than 5 µM for the second.

First: COc1cccc(-c2cccc(Oc3cccc(CNS(C)(=O)=O)c3)n2)c1F [Example 96, N-[(3-{[6-(2-fluoro-3-methoxyphenyl)pyridin-2-yl]oxy}phenyl)methyl]methane-sulfonamide]
Second: Oc1cccc(-c2cccc(Oc3ccc(F)c(C(F)F)c3)n2)c1F [Example 13, 3-{6-[3-(difluoromethyl)-4-fluorophenoxy]pyridin-2-yl}-2-fluorophenol]
The IC50 of the first is higher: greater than 30 µM for the first, 5 to 10 µM for the second. The second is the more potent here.

`Oc1cc(Oc2cccc(-c3ccc4c(c3)NCCO4)n2)ccc1F` [Example 59, 5-((6-(3,4-dihydro-2H-benzo[b][1,4]oxazin-6-yl)pyridin-2-yl)oxy)-2-fluorophenol] and `CN1CCOc2cc(-c3cccc(Oc4ccc(F)c(O)c4)n3)ccc21` [Example 33, 2-fluoro-5-((6-(4-methyl-3,4-dihydro-2H-benzo[b][1,4]oxazin-7-yl)pyridin-2-yl)oxy)phenol] cannot be ordered by IC50: no more than 5 µM for the first, no more than 5 µM for the second.

`Oc1cccc(-c2cccc(Oc3ccc4c(c3)NCCO4)n2)c1F` [Example 56, 3-[6-(3,4-dihydro-2H-1,4-benzoxazin-6-yloxy)pyridin-2-yl]-2-fluorophenol] and `O=C1Cc2ccc(Oc3cccc(-c4cccc(O)c4F)n3)cc2N1` [Example 7] cannot be ordered by IC50: greater than 30 µM for the first, greater than 30 µM for the second.

Compared with `CC(=O)Nc1cccc(-c2cccc(Oc3ccc(F)c(O)c3)n2)c1` [Example 79, N-(3-(6-(4-fluoro-3-hydroxyphenoxy)pyridin-2-yl)phenyl)acetamide], `O=S(=O)(Nc1cccc(-c2cccc(Oc3ccc(F)c(O)c3)n2)c1)C1CC1` [Example 113, N-(3-(6-(4-fluoro-3-hydroxyphenoxy)pyridin-2-yl)phenyl) cyclopropanesulfonamide] is higher in IC50: no more than 5 µM for the first, 10 to 30 µM for the second. The first is the more potent here.

`Oc1cc(Oc2cccc(-c3ccc(Cl)c(C(F)(F)F)c3)n2)ccc1F` [Example 101, 5-((6-(4-chloro-3-(trifluoromethyl)phenyl)pyridin-2-yl)oxy)-2-fluorophenol] and `Oc1cc(Oc2cccc(-c3ccc(C(F)(F)F)c(Cl)c3)n2)ccc1F` [Example 100, 5-((6-(3-chloro-4-(trifluoromethyl)phenyl)pyridin-2-yl)oxy)-2-fluorophenol] fall in the same range of IC50: 10 to 30 µM for the first, 10 to 30 µM for the second.

`Oc1cc(Oc2cccc(-c3cccs3)n2)ccc1F` [Example 8, 2-fluoro-5-((6-(thiophen-2-yl)pyridin-2-yl)oxy) phenol] and `Oc1cc(Oc2cccc(-c3ccc(O)c(F)c3)n2)ccc1F` [Example 39, 2-fluoro-4-(6-(4-fluoro-3-hydroxyphenoxy)pyridin-2-yl)phenol] cannot be ordered by IC50: 5 to 10 µM for the first, no more than 5 µM for the second.

First: COc1ccc(-c2cccc(Oc3ccc(F)c(O)c3)n2)c(F)c1 [Example 87, 2-fluoro-5-{[6-(2-fluoro-4-methoxyphenyl)pyridin-2-yl]oxy}phenol]
Second: Oc1cc(Oc2cccc(-c3ccc(OCc4ccccc4)c(F)c3)n2)ccc1F [Example 34, 5-({6-[4-(benzyloxy)-3-fluorophenyl]pyridin-2-yl}oxy)-2-fluorophenol]
The IC50 of the first is lower: no more than 5 µM for the first, greater than 30 µM for the second. The first is the more potent here.

`Oc1cc(Oc2ccnc(-c3cccc(O)c3F)n2)ccc1F` [Example 17, 2-fluoro-3-[4-(4-fluoro-3-hydroxyphenoxy)pyrimidin-2-yl]phenol] and `NC(=O)c1ccc(-c2cccc(O)c2F)nc1Oc1ccc(F)c(O)c1` [Example 25, 2-(4-fluoro-3-hydroxyphenoxy)-6-(2-fluoro-3-hydroxyphenyl)pyridine-3-carboxamide] cannot be ordered by IC50: no more than 5 µM for the first, no more than 5 µM for the second.

Compared with `CNC(=O)c1cc(Oc2ccc(F)c(OC)c2)nc(-c2cccc(O)c2F)c1` [Example 70, 2-(2-fluoro-3-hydroxyphenyl)-6-(4-fluoro-3-methoxyphenoxy)-N-methylpyridine-4-carboxamide], `CC(=O)N1CCOc2cc(-c3cccc(Oc4ccc(F)c(O)c4)n3)ccc21` [Example 46, 1-{7-[6-(4-fluoro-3-hydroxyphenoxy)pyridin-2-yl]-3,4-dihydro-2H-1,4-benzoxazin-4-yl}ethan-1-one] is lower in IC50: greater than 30 µM for the first, no more than 5 µM for the second.
